Reference: patent US12186294B2, “Modulators of prostate-specific g-protein receptor (PSGR/OR51E2) and methods of using same” (Duke University, priority 2016, dated 2025)
pEC50, pIC50: −log10 of the molar value. Square brackets hold non-standard residues; d marks the D form. Peptide text beside a SMILES is read from it.

Experiments:
OR51E2 = target: T1, OR51E2 (Homo sapiens, UniProt Q9H255); assay: in vitro luciferase assay (CRE-Luc) in Hana3A cells transfected with OR51E2; type: cell-based; conditions: for pEC50: OR51E2 agonist, Hana3A cells, luciferase, read-out: EC50 (potency); for Efficacy: compared to the 1 mM PA response
T1 construct: expressed in transfected cells; host or cells: Hana3A cells (modified human embryonic kidney cells)
T1 sequence (Q9H255 1-320): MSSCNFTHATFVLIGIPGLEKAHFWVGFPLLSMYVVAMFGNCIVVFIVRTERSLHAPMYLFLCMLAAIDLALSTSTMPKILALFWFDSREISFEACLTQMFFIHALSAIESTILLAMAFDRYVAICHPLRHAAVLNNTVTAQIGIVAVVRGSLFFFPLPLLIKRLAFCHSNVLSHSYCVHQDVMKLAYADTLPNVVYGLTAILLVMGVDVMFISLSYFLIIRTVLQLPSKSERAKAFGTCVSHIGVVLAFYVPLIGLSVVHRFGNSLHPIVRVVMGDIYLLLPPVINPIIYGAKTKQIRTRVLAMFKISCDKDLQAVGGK
Description: Hana3A cells (modified human embryonic kidney cells) were cultured in 96 well plates in M10PSF medium. LNCaP human prostate cancer cells were cultured in both RPMI medium and androgen deprived RPMI medium. Hana3A cells were transfected with CRE-Luc (CREB-dependent luciferase (Firefly)) and SV40-RL promoter plasmids, and pCI and OR51E2 plasmids. […] Upon ligand binding, an increase in cAMP drives the expression of Firefly luciferase. Increase in luminescence signal was measured with a luminometer and Optima Data Analysis software. The luminescent signal is directly proportional to receptor activation. A general schematic of a luciferase assay is shown in FIG. 5 and a schematic of the assay used in this Example is shown in FIG. 6.
The top 56 compounds from the VLS list were tested using the in vitro expression and luciferase assay. […] The biologically relevant concentrations of each metabolite were individually determined based on available data in the literature. If no data were available, compounds were tested in the range of 1 nM-100 μM. Responses were normalized to the response with 1 mM propionic acid (PA), a previously identified agonist, and also to a response with no-control.

LNCaP cells [1] = conditions: cited from earlier work
LNCaP cells [2] = assay: cell viability/proliferation assay of LNCaP cells (CellTiter-Glo); type: cell-based, human; conditions: 10 uM, 7 day incubation, vs untreated control
Description: The NEtD status was assessed through analysis of viability and proliferation of LNCap cells using use CellTiter-Glo Luminescent cell viability assay (Promega). […] Viability and proliferation assays will also be conducted with OR51E2 ligands in RWPE-2 cells.
Furthermore, a cell viability/proliferation assay of prostate cancer LNCaP cells was performed using 13-cis RA during a 7 day incubation period.

LNCaP cells [3] = assay: RT-PCR assay of NED marker and OR51E2 transcript levels in LNCaP cells; type: cell-based, human
Description: To assess the differentiation status of LNCaP cells following treatment with an OR51E2 ligand, cells were exposed to the ligands for three days. Biological markers of NED were analyzed using an RT-PCR assay. The following markers were tested: neuron specific enolase (NSE) and α-methylacyl-CoA racemase (AMACR), an enzyme essential for isomerization of branched-chained fatty acids that is present at low levels in healthy prostate cells and increased in PCa and in NE-like cells. Furthermore, changes in the expression levels of OR51E2 and androgen receptor (AR) were determined. This experiment will also be conducted using RWPE-2 cells.
For example, 19-OH AD agonist treatment of LNCaP cells increased OR51E2 transcript levels. […] Further studies using siRNA gene knockdown assays, will determine whether activated/overexpressed OR51E2 is involved in NEtD.

LNCaP cells [4] = assay: untargeted GC/MS metabolomics signatures of LNCaP cells treated with OR51E2 ligand; type: cell-based, human; conditions: 72 hours, 100 nM 19-OH AD, 250 μM AFMK, 1 mM PA
Description: Metabolomics signatures were assessed using untargeted gas chromatography/mass spectrometry (GC/MS) to analyze LNCaP cells treated with an OR51E2 ligand for 3 days. There were six biological replicates for each treatment and the results were analyzed using MetaboAnalyst software. The same analysis will also be conducted using RWPE-2 cells.
GC/MS analysis detected greater than 250 features, and 115 of them were annotated. In FIG. 24A-24F, the top 15 metabolites are presented showing the most significant differences in cells treated with agonists when compared to control cells.

[5] = 12 days incubation with agonist, vs control

Structure (SMILES)	pEC50 (OR51E2)	Efficacy (OR51E2)	other results
O=C1CCCN1 [2-Pyrrolidinone]	8.72	0.525	–
CC1=C(/C=C/C(C)=C/C=C/C(C)=C\C(=O)O)C(C)(C)CCC1 [13-cis RA, 13-cis retinoic acid]	–	–	LNCaP cell growth and tumorigenic potential (LNCaP cells [1]; Dahiya et al. (1994)): inhibits cell growth and decreases tumorigenic potential; LNCaP growth (LNCaP cells [2]): effectively impeded; pIC50 (OR51E2; responses normalized to 1 mM PA, read-out: IC50 (OR51E2 antagonist)): 6.80; OR51E2 transcript levels (LNCaP cells [3]; 10 μM, 3 days, vs control cells): significantly decreased
C[C@]12CC[C@H]3[C@@H](CCC4=CC(=O)CC[C@@]43CO)[C@@H]1CCC2=O [19-OH AD, 19-hydroxyandrost-4-ene-3,17-dione]	9.82	0.890	metabolite differences relative to controls (GC/MS) (LNCaP cells [4]): significant differences relative to controls; OR51E2 transcript levels (LNCaP cells [3]; [5]): increased
COc1ccc(NC=O)c(C(=O)CCNC(C)=O)c1 [AFMK, N-acetyl-N-formyl-5-metoxykynurenamine]	4.92	1.483	metabolite differences relative to controls (GC/MS) (LNCaP cells [4]): significant differences relative to controls
Nc1ncnc2c1ncn2C1OC(CO)C2OP(=O)(O)OC21 (stereo not drawn) [Adenosine 2′,3′-cyclic phosphate]	7.59	1.025	–
C[C@]12CCC(=O)CC1CC[C@@H]1[C@@H]2CC[C@]2(C)C(=O)CC[C@@H]12 (stereo partly drawn) [Androstanedione]	9.10	0.888	–
C[C@@H](N)C(=O)N[C@H](C)C(=O)O [D-Alanyl-d-alanine] (H-[dA]-[dA]-OH)	4.85	–	–
C[C@]12CC[C@H]3[C@@H](CCC4=CC(=O)CC[C@@]43C)[C@@H]1CC[C@H]2O [Epitestosterone]	9.16	0.477	–
C[C@]12CC[C@@H]3c4ccc(O)cc4CC[C@H]3[C@@H]1C[C@@H](O)[C@@H]2O [Estriol]	4.28	–	–
Cc1c(O)cc2c(c1C)OC(C)(CCC(=O)O)CC2 (stereo not drawn) [Gamma-CEHC]	8.19	1.286	–
NCC(=O)O [Glycine]	–	0.613	–
NCC(=O)NCC(=O)O [Glycylglycine] (H-Gly-Gly-OH)	4.96	–	–
O=C(O)C(=O)CO [Hydroxypyruvic acid]	6.38	1.100	–
OC[C@H]1O[C@H](O[C@H]2C(O)O[C@H](CO)[C@@H](O)[C@@H]2O)[C@H](O)[C@@H](O)[C@@H]1O (stereo partly drawn) [Kojibiose]	6.00	0.790	–
O=C(O)[C@@H](O)CO [L-Glyceric acid]	8.72	–	–
CC(=O)N[C@@H](CCC(=O)O)C(=O)O [N-Acetylglutamic acid]	9.64	–	–
CCC(=O)O [PA, propionic acid]	–	–	metabolite differences relative to controls (GC/MS) (LNCaP cells [4]): significant differences relative to controls; AMACR transcript levels (LNCaP cells [3]; [5]): increased; NSE transcript levels (LNCaP cells [3]; [5]): increased
CCCCCCCCCCCCCCCC(=O)O [Palmitic acid]	8.01	0.927	–
NC(N)=O [Urea]	7.64	0.580	–
CC(=O)/C=C/C1=C(C)CCCC1(C)C [beta ionone, beta-ionone]	–	–	proliferation of LNCaP cells (LNCaP cells [1]; Neuhaus et al. (2009), OR51E2/PSGR activation): decreased
